In patent US20240216376A1, “COMBINATION THERAPIES FOR THE TREATMENT OF CANCER” (Duke University, priority 2021, published 2024):

Assays:
[1] = test system: AML cell lines; assay: Short-term drug sensitivity assay (GI50), selinexor plus background drug; format: cell-based; conditions: fixed-concentration background drug; for sensitization to selinexor (relative selinexor GI50), PI3K isoform-specific inhibitor background: panel of AML cell lines; for sensitization to selinexor (relative selinexor GI50), AKT or MEK/ERK inhibitor background: panel of eight AML cell lines, 72 hours
Method: Short-term cell viability assays were conducted. Briefly, AML cells were seeded at a density of 7,500 cells/well, treated with vehicle (DMSO) or a 10-fold serial dilution of selinexor (individually or combination with fixed-concentration background drug) and assessed for viability after 72-hours using Cell Titer Glo (Promega). The relative cell viability was determined by normalizing the raw luminescence values for each treatment condition to either the DMSO-treated well (selinexor individually) or the background drug only well (selinexor combinations). GI50 values approximate the concentration of selinexor required to inhibit growth of cells by 50%. Values were interpolated from dose-response curves plotted using GraphPad/Prism 8 software.

[2] = test system: AKT; assay: Western immunoblot of AKT phosphorylation in AML cell lines; format: cell-based
Method: (§1) Protein lysates were prepared with 1×CST Lysis Buffer (CST #9803) supplemented with 1× cOmplete protease inhibitor cocktail (Roche #04693124001) and 1× PhosSTOP phosphatase inhibitor (Roche #04906837001). Crude lysates were rotated for 15 minutes with lysis buffer, cleared by centrifugation at 13,000 rpm for 10 minutes at 4° C. and normalized by total protein content using standard Bradford analysis. Membranes were probed with primary antibodies β-actin (13E5) (CST #4970 diluted 1:5000 in 5% BSA), p-AKT T308 (244F9) (CST #4056 diluted 1:1000 in 5% BSA), p-AKT S473 (D9E) (CST #4060 diluted 1:1000 in 5% BSA), T-AKT (C67E7) (CST #4691 diluted 1:3000 in 5% BSA), p-GSK3B S9 (D85E12) (CST #5558 diluted 1:1000 in 5% BSA), p-BAD S136 (D25H8) (CST #4366 diluted 1:1000 in 5% BSA), CRM1 (C-1) (sc #74454 diluted 1:100 in 5% BSA), cleaved-PARP (D64E10) (CST #5625 diluted 1:1000 in 5% BSA), cleaved-Caspase3 D175 (CST #9661 diluted 1:500 in 5% BSA), p110-g (D55D5) (CST #5405 diluted 1:1000 in 5% BSA), p110α (C73F8) (CST #4249 diluted 1:1000 in 5% BSA), p110β (C33D4) (CST #3011 diluted 1:1000 in 5% BSA), p1108 (D1Q7R) (CST #34050 diluted 1:1000 in 5% BSA) or p101 (D32A5) (CST #5569 diluted 1:1000 in 5% BSA) overnight (16 hours). Following incubation with HRP-conjugated secondary antibody, blots were developed with SuperSignal West Pico PLUS Chemiluminescent Substrate (ThermoFisher) or ECL Western Blotting Substrate (ThermoFisher).
To validate selinexor's ability to activate PI3K/AKT signaling, each of five AML cell lines was treated with selinexor for 24 hours before performing western blot analysis. […] Additional AKT-dependent phosphorylation marks on PRAS40, FOXO3a, and TSC2 were also assessed in OCI-AML2 cells and found to be increased. This phosphorylation pattern was indicative of activated AKT signaling. To characterize the kinetics of selinexor-induced AKT activation, AML cells were treated with selinexor and collected samples at interval time points up to 48 hours. Across multiple cell lines, activation of AKT signaling was observed starting at 8-24 hours (FIG. 2B). […] The delays between treatment and AKT activation, observed both in vivo and in vitro, were not inconsistent with the presumption that selinexor primarily acts through transcriptional mechanisms. Finally, to assess the exclusivity of these findings for selinexor, cells were treated with a panel of eight additional anti-leukemic drugs for 24 hours.

[3] = test system: RAS; assay: Ras-GTP immunoprecipitation (RAF1-RBD pulldown); format: cell-based
Description: Active GTP bound Ras was pulled down and detected using the Active Ras Pull-Down and Detection Kit (Thermo Scientific, #16117) according to manufacturer's instruction. At least 10×10^6 cells were used in pull-down and lysates were normalized to ensure equal protein input across DMSO and selinexor-treated samples within each cell line.

[4] = test system: OCI-AML2 cells; assay: Pooled CRISPR selinexor sensitizer screen, selinexor dose (approx. GI50); format: cell-based; conditions: Homo sapiens, 336 h, two-week screen period, approximate, read-out: GI50 concentration
Method: Virus production, titering and transduction was performed as previously described. In short, viral titer (Infectious Units (IFU)/mL) was found by transducing OCI-AML2 cells with a 1:3 dilution series of library virus, selecting cells with puromycin for 2 days and determining multiplicity of infection (MOI) from % of cells infected. Viral titer is equal to (#cells seeded*MOI*Virus dilution factor)/(Volume of virus added to each well). […] For the selinexor sensitizer screen, selinexor was dosed at 100 nM, a concentration that yielded sufficient selective pressure without excessive cell death (approximately the GI50 concentration) over the two-week screen period. […] Genomic DNA was extracted using the DNeasy Blood & Tissue Kit (Qiagen) from 25×10^6 cell samples taken prior to dividing cells into treatment conditions (time zero) and after completion of the two-week screen. Amplification of the sgRNA barcodes and indexing of each sample was performed via 2-step PCR as previously described.

[5] = test system: AKT; assay: AKT activation in vivo, syngeneic MLL-AF9-driven model of AML; conditions: MLL-AF9 cells from treated mice
[6] = test system: OCI-AML2 cells; assay: Reverse phase protein array (RPPA) analysis; format: cell-based
Method: OCI-AML2 cells were treated with DMSO or selinexor for 3, 24 and 48-hours at which point 3×10^6 cells were pelleted and frozen at -80° C. RPPA analysis was performed as previously described. All samples were conducted in biological triplicate and normalized to DMSO control at each respective timepoint. Next, it was sought to identify the signaling nodes activated by selinexor treatment. To do this, a reverse phase protein array (RPPA) was used to analyze AML cells treated with DMSO or selinexor for 48 hours, using a dose of selinexor sufficient to provide an on-target effect but not high enough to impose a meaningful selective pressure. The RPPA platform, which provides quantitative measurements of 160 epitopes and phospho-epitopes representing cellular growth, proliferation, and signaling pathways, identified many drug-induced effects, several of which supported previously described mechanisms of selinexor activity. […] (FIG. 1C). […] In addition to corroborating selinexor's established effects, the RPPA data was able to identify selinexor-induced downregulations of phospho-S6 at Ser235/236 and Ser240/244, phospho-elF4G at […], and phospho-4E-BP1 at […], which collectively pointed to suppression of mTORC1 signaling (FIG. 1C). This idea has been raised in multiple myeloma and was further supported here by the reciprocal upregulation of DEPTOR, a negative regulator of mTOR.

[7] = test system: P2RY2; assay: qRT-PCR of P2RY2 expression; format: cell-based
Method: RNA was isolated from whole cells with the RNEasy Mini kit (Qiagen). cDNA was reverse transcribed from total RNA samples using iScript cDNA Synthesis Kit with 1 μg of RNA template. qRT-PCR was carried out using iQ SYBR Green Supermix and a CFX384 Touch Real-Time PCR Detection System, according to manufacturer instructions. Fold expression was determined by normalizing cycle threshold (Cq) values to ACTB reference gene and normalizing samples to control sample, in accordance with the ΔΔCq method.

[8] = test system: extracellular ATP; assay: Extracellular ATP release in presence of ARL67156; format: cell-based; conditions: 36 hours, with ectonucleotidase inhibitor ARL67156, normalized for cell quantity
Method: To assess the role of P2RY2 in selinexor-induced AKT activation, the ability of P2RY2 to activate AKT in the AML cell lines was first tested by culturing cells in the presence of exogenous ATP or UTP. Cells cultured with exogenous ATP activated AKT signaling while cells cultured with exogenous UTP only minimally activated AKT, if at all, prompting the possibility that selinexor may activate AKT signaling through induced release of extracellular ATP. This was tested by treating cells with selinexor versus vehicle in the presence of the ectonucleotidase inhibitor ARL67156 and quantifying the amount of extracellular ATP released after 36 hours.

[9] = test system: MAPK signaling; assay: Western blot of MAPK signaling in AML cell lines; format: cell-based; conditions: multiple AML cell lines
Method: as §1, with “Following incubation with HRP-conjugated secondary antibody, blots were developed with SuperSignal West Pico PLUS Chemiluminescent Substrate (ThermoFisher) or ECL Western Blotting Substrate (ThermoFisher).” left out

[10] = format: in vivo; conditions: selinexor 15 mg/kg in mice
Method: Animals transplanted with these AML cells were treated with the combination of selinexor (15 mg/kg, oral gavage) and ipatasertib (65 mg/kg, oral gavage) or either drug alone every other day for ten days.

With `Cc1nc(NC(=O)N2CCC[C@H]2C(N)=O)sc1-c1ccnc(C(C)(C)C(F)(F)F)c1` [BYL-719] the “sensitization to selinexor (relative selinexor GI50), PI3K isoform-specific inhibitor background” value [1] was “unable to sensitize any of the cell lines to selinexor”.

With `NC1(c2ccc(-c3nc4ccn5c(=O)[nH]nc5c4cc3-c3ccccc3)cc2)CCC1` [MK-2206] the “sensitization to selinexor (relative selinexor GI50), AKT or MEK/ERK inhibitor background” value [1] was “capable of sensitizing all eight of the AML cell lines tested to selinexor”.

For `NC(=O)/C(=C/n1cnc(-c2cc(C(F)(F)F)cc(C(F)(F)F)c2)n1)c1cncnc1` [eltanexor], the “AKT phosphorylation at Thr308 and Ser473 (second-generation CRM1 inhibitor)” value ([2]; western blot of eltanexor-treated samples) was “produced consistent phosphorylation of AKT at Thr308 and Ser473”.

In the case of `CCn1c(-c2nonc2N)nc2c(C#CC(C)(C)O)ncc(OC[C@H]3CCCNC3)c21` [GSK690693], the “sensitization to selinexor (relative selinexor GI50), AKT or MEK/ERK inhibitor background” value [1] is reported as “capable of sensitizing all eight of the AML cell lines tested to selinexor”.

For `Cc1cc(C(C)Nc2ccccc2)c2nc(N3CCOCC3)cc(=O)n2c1` (stereo not shown) [TGX-221], the “sensitization to selinexor (relative selinexor GI50), PI3K isoform-specific inhibitor background” value [1] was “unable to sensitize any of the cell lines to selinexor”.

For `Cc1ccc2c(c1)C=Cc1cc(C)ccc1C2c1cn(Cc2ccc(C(=O)Nc3nn[nH]n3)o2)c(=O)[nH]c1=S` [AR-C118925XX], the “p-AKT T308 in FLT3-mutant expressing cells” value ([2]; OCI-AML2 cells expressing D835Y-mutant FLT3) was “reduced but did not completely ablate the elevated p-AKT T308 signal”, the “p-AKT T308, baseline” value ([2]; OCI-AML2 cells expressing GFP, western blot) was “suppressed p-AKT T308” and the “effect on selinexor-induced GTP-RAS” value ([3]; OCI-AML2, AR-C added to selinexor) was “able to reverse the increased GTP-RAS”.

In the case of `C[C@H](NC(=O)c1c(N)nn2cccnc12)c1cc2cccc(C#Cc3cnn(C)c3)c2c(=O)n1-c1ccccc1` [IPI-549], the “sensitization to selinexor (relative selinexor GI50), PI3K isoform-specific inhibitor background” value [1] is reported as “capable of sensitizing each AML cell line to selinexor”.

With `CC(C)NC[C@@H](C(=O)N1CCN(c2ncnc3c2[C@H](C)C[C@H]3O)CC1)c1ccc(Cl)cc1` [ipatasertib] the “sensitization to selinexor (relative selinexor GI50), AKT or MEK/ERK inhibitor background” value [1] was “capable of sensitizing all eight of the AML cell lines tested to selinexor”.

For `O=C(/C=C\n1cnc(-c2cc(C(F)(F)F)cc(C(F)(F)F)c2)n1)NNc1cnccn1` [selinexor], the GI50 [4] was roughly 100 nM, the “AKT phosphorylation at Thr308 and Ser473” value ([2]; five AML cell lines, selinexor 24 hours, western blot) was “increased AKT phosphorylation at both Thr308 and Ser473” and the “start of activation of AKT signaling” value ([2]; multiple AML cell lines, time points up to 48 hours) was 8 to 24 h. For the same compound, the “start of AKT activation after treatment” value [5] was 6 to 8 h, the “RPPA expression of phospho-AKT (Thr308 and Ser473)” value ([6]; OCI-AML2 cells, 48 hours selinexor vs DMSO) was “two of the strongest upregulations identified by RPPA were reserved for AKT” and the “RPPA phospho-ERK at Thr202/Tyr204” value ([6]; selinexor- versus vehicle-treated cells) was “an increase in phopho-ERK at Thr202/Tyr204”. For the same compound, the P2RY2 expression ([7]; each of five AML cell lines, vs DMSO control) was “increased P2RY2 expression”, the “time course of P2RY2 transcriptional upregulation” value ([7]; qRT-PCR, up to 48 hours) was “transcriptional upregulation of P2RY2 starting at 12 and increasing through 48 hours” and the “extracellular ATP released” value [8] was “no increase in extracellular ATP”. The GTP-RAS ([3]; five AML cell lines, selinexor- versus vehicle-treated) was “increased GTP-RAS”, the MAPK signaling [9] was “activated MAPK signaling in a P2RY2 dependent manner” and the on-target response [10] was “induction of p53”.
